Values quoted from earlier work in patent US11559485B2 (NANOCOPOEIA, LLC, priority 2020, dated 2023).
Where a name gives a salt, the structure may show the parent alone.

Details: low/moderate aqueous solubility and low permeability

BCS class: Class IV
SMILES: Cc1cn(-c2cc(NC(=O)c3ccc(C)c(Nc4nccc(-c5cccnc5)n4)c3)cc(C(F)(F)F)c2)cn1 [Nilotinib monohydrochloride monohydrate]
